Patent US5563128A, “Phosphonate derivatives of lipophilic amines” (Rhone-Poulenc Rorer Pharmaceuticals Inc., priority 1995, dated 1996)
pIC50: −log10 of the molar value.

Target: T1, squalene synthase (Rattus norvegicus, UniProt Q02769)
T1 construct: Microsomes are prepared by centrifugation (100,000 g) and then resuspended in the assay buffer; from tissue; host or cells: liver microsomes of male Sprague-Dawley rats (animals from Taconic Farms, Germantown, N.Y.)
T1 sequence (Q02769 1-416): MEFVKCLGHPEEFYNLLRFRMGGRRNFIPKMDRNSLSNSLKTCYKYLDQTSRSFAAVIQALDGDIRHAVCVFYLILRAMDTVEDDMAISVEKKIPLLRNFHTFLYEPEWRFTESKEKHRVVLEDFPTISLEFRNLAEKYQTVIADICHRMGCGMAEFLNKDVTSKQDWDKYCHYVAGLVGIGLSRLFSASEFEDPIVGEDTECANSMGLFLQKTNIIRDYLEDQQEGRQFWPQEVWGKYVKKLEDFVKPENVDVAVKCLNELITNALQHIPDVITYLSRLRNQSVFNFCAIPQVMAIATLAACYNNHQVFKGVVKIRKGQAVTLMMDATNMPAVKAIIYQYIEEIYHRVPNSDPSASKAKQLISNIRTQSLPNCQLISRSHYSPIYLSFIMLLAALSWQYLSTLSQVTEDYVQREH
Experiment: Squalene Synthase Inhibition Assay (rat liver microsomes, [3H]FPP)
Type: biochemical, rat (male Sprague-Dawley)
Conditions: for pIC50: 50 mM, pH 7.4
Protocol: Squalene Synthase Inhibition Assay
I. Preparation of Assay Substances:
Test solutions are prepared fresh in 100% DMSO or dH2 O. Subsequent dilutions are made in the same solvent. Compounds are tested initially at 1 μM (final concentrations).
Potassium Phosphate (50 mM,) pH 7.4, and HEPES (4-(2-hydroxyethyl)-1-piperazineethanesulfonic acid, 50 mM) pH 7.4 stock buffers are prepared and stored at 4° C. until use.
C) Microsomal Enzyme Preparation:
Fresh livers from male Sprague-Dawley rats (Taconic Farms, Germantown, N.Y.) weighing 150-200 g are collected after exsanguination. All subsequent procedures are performed at 4° C. The liver is homogenized in the assay buffer (50 mM, pH 7.4). Cellular fractions are separated as described by Popjak, G. in "Enzymes of sterol biosynthesis in liver and intermediates of sterol biosynthesis," Meth. Enzymol. […] Microsomes are prepared by centrifugation (100,000 g) and then resuspended in the assay buffer. Microsomes are rehomogenized with a motor-driven Teflon pestle to yield a uniform suspension (~30 mg protein/ml), aliquoted, and stored at -80° C. until use.
II. Squalene Synthase Assay
The procedure is a modification of those described by Popjack (ibid) and Poulter et al. in "Squalene synthase. Inhibition by ammonium analogues of carbocationic intermediates in the conversion of presqualene diphosphate to squalene" J. Am. Chem. Soc. […] All components except [^3 H]FPP are preincubated for 10 min. at 37° C. The reaction is initiated by the addition of [^3 H]FPP. […] The tubes are incubated at 65° C. for 30 min. to solubilize proteins. The mixture is extracted with 5 ml petroleum ether for 10 min. After freezing the lower aqueous phase, the organic phase is transferred to glass tubes containing 2 ml distilled water. After washing the lower aqueous phase is frozen and the petroleum ether phase is removed and counted with 10 ml Ready Safe liquid scintillation cocktail using a Beckman LS-9000 scintillation counter. DPM values are adjusted against a blank (no enzyme).
The difference in radioactivity in the presence and absence of the test compound is used to determine the level of inhibition. […] Tallarida, R. J. and Murray, R. B. Manual of pharmacologic calculations with computer programs.

pIC50 (HEPES buffer) | inhibition at 10 µM (Phosphate buffer) [%] | inhibition at 5 µM (Phosphate buffer, @ 5 μM) [%] | Structure (SMILES) | inhibition at 10 µM (HEPES buffer) [%]
4.77 | 35 | – | O=P(O)(O)CCCN1CCC=C(c2ccc(-c3nc4ccccc4o3)cc2)C1 | –
7.89 | – | – | O=P(O)(O)C(CCN[C@@H]1CCCC[C@H]1OCc1ccc(-c2nc3ccccc3o2)cc1)P(=O)(O)O (relative stereo) | –

The next lines start with the molecule.

Structure (SMILES) | pIC50 (HEPES buffer) | inhibition at 10 µM (Phosphate buffer) [%] | inhibition at 5 µM (Phosphate buffer, @ 5 μM) [%] | inhibition at 10 µM (HEPES buffer) [%]
O=P(O)(O)CCCN[C@@H]1CC=CC[C@H]1c1ccc(/C=C/c2ccccc2)cc1 (relative stereo) | – | – | 61 | -2
COP(=O)(O)C(CCN[C@@H]1CC=CC[C@H]1c1ccc(/C=C/c2ccccc2)cc1)P(=O)(O)OC (relative stereo) | – | – | – | 69
CCOP(=O)(OCC)C(CCN[C@@H]1CCCC[C@H]1OCc1ccc(-c2nc3ccccc3o2)cc1)P(=O)(OCC)OCC (relative stereo) | – | – | – | 14
